The results in this text go back to patent publication US12390423B2 (priority 2019, dated 2025).

Entries after “also recorded” stand apart in the source; their conditions may differ.

One data set has as its system C2C12 myotubes. In words: Cellular ATP content in C2C12 myotubes. The data set is classed as cell-based, mouse. The following applies: 0.5 mM palmitate 24 h, AVO 25 μM, DCA 1 mM, TRI 25 μM. On the procedure: (§1) Total cellular ATP content was determined using the ATP bioluminescent assay kit (Calbiochem, 119107). Briefly, cells were seeded in white walled 96-well plates (1.2×10^4 cells/well for INS-1 and 2×10^4 cells/well for C2C12) and treated for 24 h (C2C12 cells were differentiated for 5 days prior to treatments whereas INS-1 cells were treated 24 h after seeding). After treatment, culture media was removed, and cells were lysed with nucleotide releasing buffer with gentle shaking for 5 min. ATP monitoring enzyme was then added to cell lysates and plates and luminescence was read in a Biotek Synergy HT spectrophotometer (Biotek; Winooski, VT).

Data set [1] is described as follows: Avocatin B oral consumption pilot clinical study (Phase I, NCT03898505).
Description: A single center, double-blind, placebo-controlled, randomized, pilot clinical study was executed to determine the safety of consuming 50 mg (equivalent to consuming a quarter Hass avocado pulp) or 200 mg (equivalent to consuming one Hass avocado pulp) AvoB per day for 60 days in healthy human participants (NCT03898505).
The investigational product was approved by Health Canada (natural product number (NPN) 80074296). To create the product, freeze-dried avocado pulp powder was sourced from Avocado Oil New Zealand Ltd., (Tauranga, New Zealand) and tested for absolute quantities of AvoB per gram of powder using a validated analytical method^61. Clinical trial material was then standardized to contain low dose (50 mg) or high dose (200 mg) AvoB (FIG. 9). The placebo product was formulated similarly to the investigational product except it only contained the non-medicinal food-grade ingredients used in the test product and other excipients that were used to simulate appearance, smell, texture and taste of the investigational product. Participants in every group consumed 40 g of material per day for 60 days by dissolving/blending the product in 12-16 ounces of a smoothie like diluent (e.g., milk (with or without lactose), soy milk, coconut milk, or fruit juice of the participant's choice). All three products were approximately matched for total calories per serving.
Healthy volunteers (13 males and 17 females; age range 20-54 years, BMI range 19.1-29.9) were enrolled in the study. Exclusion criteria were: presence of active clinical disease and history of diabetes, hypertension, dyslipidemia, major depressive disorders, chronic liver disorders, kidney disorders, or blood disorders. […] Primary outcome was the analysis of adverse experiences (AEs) measured throughout the study. Secondary outcomes were to ascertain safety and tolerability which were assessed through clinically relevant changes in standard laboratory evaluations (blood chemistry and hematology) measured on days 0, 30 and 60. Body mass index (BMI) and glycated hemoglobin (HbA1c) were also measured as part of secondary outcomes. […]
Mean change from baseline at day 30 and 60 for all laboratory evaluations and body weight were analysed by the non-parametric Kruskal-Wallis—One-Way Analysis of Variance on Ranks. using GraphPad Prism 6.0 (GraphPad Software, USA) where differences with p<0.05 were considered to be statistically significant. AEs were tabulated (for all randomized patients who received at least one dose of study supplements) and analyzed using Fisher's exact test of independence in Statistical Analysis System (SAS) university edition where differences with p<0.05 were considered to be statistically significant.
In data set [2] the test system is insulin signaling (pAkt-Ser473), MAPK, AMPK. In words: Immunoblotting (pAkt, pERK1/2, pP38, pAMPKα, PGC-1α) and NAO mitochondrial mass in C2C12 myotubes. It is filed as cell-based, mouse. On the procedure:
For all ROS studies, INS-1 (832/13) cells and C2C12 myotubes were treated with or without palmitate and FAO inhibitors for 24 h in low glucose cell culture media as described for the FAO assay. After treatment, cells were trypsinized and re-suspended in PBS containing 5 μM of the fluorescent dye MitoSOX® (Molecular Probes, Invitrogen) and allowed to incubate for 5-15 minutes in a humidified atmosphere containing 5% CO2 at 37° C. Cells were then washed in PBS, placed in a 96 well plate and fluorescence was measured by flow cytometry. ROS was quantified by normalizing the mean fluorescence values of live gated cells to vehicle control. Mitochondrial membrane potential (MMP) in INS-1 (832/13) and C2C12 myotubes was measured using the cationic fluorescent dye JC-1 (Molecular Probes). JC-1 accumulates in the mitochondrial matrix in an MMP dependent manner. JC-1 fluoresces green in the cytosol where it exists as a monomer, after entering the mitochondria JC-1 monomers form J aggregates and fluoresce red, thus the red/green fluorescence ratio is used to determine MMP. After all treatments, cells were washed, trypsinized and re-suspended in PBS containing 1 μM JC-1 and allowed to incubate for 5-10 minutes in a humidified atmosphere containing 5% CO2 at 37° C. Cells were then washed in PBS, placed in a 96 well plate and fluorescence was measured by flow cytometry. MMP was quantified by normalizing the mean fluorescence values of live gated cells to vehicle control. Mitochondrial mass was measured using 10-N-nonyl acridine orange (NAO; Enzo Life Sciences, ENZ-52306), which accumulates in the mitochondria in an MMP-independent manner where it binds to cardiolipin in the inner mitochondrial membrane. Cells were treated, washed and collected as described and incubated with 0.35 μM NAO and green fluorescence was measured using flow cytometry. In all analysis (ROS, MMP and mitochondrial mass), forward vs side scatter plots were gated to exclude debris (e.g., dead cells), as cell death is associated with increased ROS and altered membrane potentials. For all cell culture experiments, after drug treatments cells were washed with chilled phosphate-buffered saline (PBS), and lysed in chilled lysis buffer with 1× protease inhibitor cocktail (Sigma). RIPA lysis buffer (Sigma-Aldrich) was used for INS-1 (832/13) cells and muscle lysis buffer for C2C12 myotubes (20 mM HEPES, 10 mM NaCl, 1.5 mM MgCl2, 1 mM DTT, 20% glycerol, and 0.1% Triton-X100). Cells were scraped, mechanically homogenized using a syringe and centrifuged at 14,000×g for 20 min at 4° C. and the supernatants were collected. For preparation of all gastrocnemius muscle lysates, 10 mg frozen tissue (wet weight) was washed in chilled PBS, placed in a dounce homogenizer, lysed in muscle lysis buffer and centrifuged at 14,000×g for 20 min at 4° C. and the supernatant was collected. Protein content for cell and tissue lysates was measured using the BCA protein assay kit (ThermoFisher) according to manufacturer's protocol. Thirty μg protein lysates were prepared in loading buffer and immunoblotting was performed by heating lysates for 5 minutes at 95° C. and subjecting them to gel electrophoresis on 10% SDS-polyacrylamide gels at 150 V for 75 minutes. Using a semi-dry transfer apparatus (Bio-Rad) the gels were then transferred at 25V for 45 minutes to a PVDF membrane and blocked with 5% BSA (Sigma) in tris-buffered saline-tween (TBS-T) for 1 hour. […]

For data set [3], the system named is INS-1 (832/13) cells. In words: Glucose oxidation (D-[14C(U)]-glucose) in INS-1 (832/13) cells. The data set is classed as cell-based, rat. The note with it: 25 μM AvoB, lipotoxic conditions, vs palmitate only. On the procedure:
C2C12 myotubes and INS-1 (832/13) cells treated as in the FAO assays described above and then incubated with D-[^14C(U)]-glucose (0.58 μC/mL) and unlabeled glucose (final glucose concentration 200 μM) for 4 h subsequent to which [^14C]—CO2 (representing complete glucose oxidation) and ASMs (representing incomplete glucose oxidation) were captured and quantified as described in the FAO method. For C2C12 myotubes, glucose oxidation and uptake was measured with and without a 30 min pre-incubation with 100 nM insulin to determine basal and insulin-mediated glucose oxidation or uptake, respectively.

Data set [4] relates to INS-1 (832/13) cells. In words: Cellular ATP content in INS-1 (832/13) cells. It is filed as cell-based, rat. The note with it: 25 μM AvoB, palmitate challenged, 24 h. The method, then: as §1
Data set [5] concerns INS-1 (832/13) cells. Kind of data set: Cell viability (propidium iodide, flow cytometry) in INS-1 (832/13) cells. It is filed as cell-based. The following applies: AvoB 24 h. On the procedure: Quantitative analysis of cell death was evaluated by flow cytometry using propidium iodide staining (Biovision, Mountainview, CA), where specified, according to the manufacturer's protocol and as previously described^28. Viable cells were identified as PI negative (PI−).

As to avocatin B [AvoB], in the data set on C2C12 myotubes, the “Total cellular ATP content” value is given as “restored cellular ATP content to that of control cells”. For the same substance, in data set [1] (both AvoB supplemented groups relative to placebo, trend, not statistically significant (p=0.10)), the “Body weight change between baseline and day 30” value is recorded as “decreases in body weight”. The “Change from baseline in body mass index or glycated hemoglobin (HbA1c)” value in data set [1] (either AvoB treated group compared to placebo) was “No clinically relevant changes from baseline”. Further, the “Overall tolerability / toxicity (adverse events)” value in data set [1] (healthy human participants, 50 or 200 mg AvoB/day for 60 days) is given as “generally well-tolerated; also recorded: exerted no toxicity”. In addition, in data set [2] (25 μM AvoB, 0.5 mM palmitate, 24 h), the “Palmitate induced phosphorylation of MAPK ERK1/2 and P38” value was “reduce palmitate induced phosphorylation”. In addition, in data set [2] (25 μM AvoB, 24 h), the “AMPK activation (pAMPKα-Thr172)” value is “independent of AMPK activation” and the “Mitochondrial biogenesis (PGC-1α protein, NAO dye)” value is on record as “independent”. Also, in data set [2] (0.5 mM palmitate 24 h, 100 nM insulin 30 min, AvoB 25 μM, DCA 1 mM, TRI 25 μM), the “Insulin signaling (insulin stimulated phosphorylation of AKT Ser473)” value is listed as “restore the suppressive effects of lipotoxicity on insulin stimulated phosphorylation of AKT^Ser473”. Further, the “Glucose oxidation (D-[14C(U)]-glucose to CO2)” value in the data set on INS-1 (832/13) cells [3] was “greater glucose oxidation compared to cells treated with palmitate only”. Further, in the data set with INS-1 (832/13) cells [4], the “Total cellular ATP content” value was “restores total cellular ATP content”. For the same substance, the Cell viability result in the data set on INS-1 (832/13) cells [5] is reported as “no effect on cell viability”.
